Measured values: US20050107682A1, “fMRI system for use in assessing the efficacy of therapies in treating CNS disorders” (priority 2003, published 2005)

Tested on: PD patients
Assay: fMRI of PD patients performing paced finger tapping (PFT), on and off dopamine supplementation
Assay type: in vivo
Experimental: In this fMRI study, ten PD patients and thirteen healthy age-matched controls were imaged while performing the PFT. PD patients underwent two imaging sessions, one on and the other off dopamine supplementation. For this study whole-brain fMRI was performed on a 1.5 Tesla General Electric Signa scanner equipped with a 3-axis local gradient head coil and an elliptical end-capped quadrature radiofrequency coil. Foam padding was used to limit head motion within the coil. Echo-planar images were collected using a single-shot, blipped gradient-echo echo-planar pulse sequence (TE=40 ms, TR=3.0 seconds, 90° flip angle, FOV=240 mm, matrix=64×64). Twenty-two contiguous sagittal 6 mm thick slices were collected to provide coverage of the entire brain (voxel size 3.75×3.75×6 mm). Overall, a total of 136 images were collected per run. Prior to functional imaging, high-resolution, three-dimensional, spoiled gradient-recalled at steady-state (GRASS) anatomic images were collected (TE=5 ms, TR=24 ms, 40° flip angle, NEX=1, slice thickness=1.2 mm, FOV=24 cm, matrix=256×128) for anatomic localization and co-registration.

In the case of `N[C@@H](Cc1ccc(O)c(O)c1)C(=O)O` [Levodopa], the “effect on the S task (fMRI activation)” value (PD patients ON vs OFF medication, S condition of PFT task) is reported as “relatively little effect”, the “spatial extent of activation within the SMC, SMA, and putamen” value (PD patients, fMRI during PFT, on vs off dopamine replacement) is reported as “increase” and the brain activation patterns (PD patients, fMRI during PFT, relative to healthy controls) is reported as “partially “normalized””. The PFT performance (PD patients, on vs off dopamine supplementation) was “lack of improvement”.
